Measured values reported in article PMC10377601, “Side Chain-Modified Benzothiazinone Derivatives with Anti-Mycobacterial Activity” (Biomedicines, 2023).
Values after ≈ are worked out from the molar mass of the structure shown.

Tests used:
[1] = target: T1, recombinant M. tuberculosis DprE1 enzyme (Mycobacterium tuberculosis, UniProt P9WJF1); assay: DprE1 inhibition, Amplex Red/peroxidase coupled assay; assay type: biochemical; settings: Mtb DprE1
T1 construct: made in house; host or cells: E. coli
T1 sequence (P9WJF1 whole entry): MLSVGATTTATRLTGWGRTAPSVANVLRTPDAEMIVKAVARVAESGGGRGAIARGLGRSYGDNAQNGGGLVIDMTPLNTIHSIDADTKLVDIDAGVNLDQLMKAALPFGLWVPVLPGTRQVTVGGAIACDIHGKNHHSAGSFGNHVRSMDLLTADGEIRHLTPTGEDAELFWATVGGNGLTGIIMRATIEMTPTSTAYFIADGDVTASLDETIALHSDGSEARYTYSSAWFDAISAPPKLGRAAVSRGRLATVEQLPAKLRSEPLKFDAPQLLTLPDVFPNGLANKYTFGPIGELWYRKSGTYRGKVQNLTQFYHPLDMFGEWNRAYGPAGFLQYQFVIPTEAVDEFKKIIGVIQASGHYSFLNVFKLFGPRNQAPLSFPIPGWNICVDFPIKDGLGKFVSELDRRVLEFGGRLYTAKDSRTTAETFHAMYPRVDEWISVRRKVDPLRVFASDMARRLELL

[2] = in vitro; assay type: in vitro ADME; set-up: dose or concentration left out as unconfirmed; settings: human, microsomes, pH 7.4
Method: The compounds’ metabolic stability were determined in human liver microsomes. A solution of microsomes (0.2 mg/mL) containing the compounds […], NADPH (1 mM), and phosphate buffer (100 mM, pH 7.4) were prepared. Pre-incubation was conducted at 37 °C for 10 min. There was addition of 50 µL and 5 mM NADPH to initiate the reaction. At 5, 15, 30, 60, or 120 min, 30 µL of reaction solution was taken out and quenched with 300 µL internal standard tolbutamide (10 ng/mL) in cold CH3CN. The mixture was centrifuged at 6000 rpm for 15 min at 4 °C. Then, 100 μL supernatant was diluted with 100 uL ultrapure water (Millipore, ZMQS50F01). The solution was analyzed via LC/MS analysis.

[3] = test system: M. tuberculosis H37Rv; assay: MIC determination by microplate alamar blue assay (MABA); assay type: cell-based; settings: Mycobacterium tuberculosis
[4] = test system: M. tuberculosis H37Rv; assay: [14C]-acetate metabolic labeling, TLC analysis of lipids; assay type: cell-based; settings: Mtb H37Rv, 10 × MIC, 100 × MIC, 24 h, compared to control bacteria
[5] = Kinetic solubility in PBS; settings: pH 7.4, aqueous buffer, kinetic from dmso stock
[6] = test system: HepG2 cell; assay: Cytotoxicity against HepG2 cell, MTT assay; assay type: cell-based; settings: at a concentration lower than 1.0 μg/mL
Method: (§1) HepG2 cells we r e obtained from the Chinese Type Culture Collection (Shanghai, China) and maintained in Dulbecco’s modiﬁed eagle medium (Gibco; #C11995500BT) con‐ taining 1% (v/v) penicillin/streptomycin (Beyotime; #C0222) and 10% (v/v) fetal bovine se‐ rum (Gibco; #GB10270106) in an atmosphere of 5% CO2 at 37 °C. HepG2 cells we r e seeded into 96‐we l l plates at a density of 5,000 cells/well (100 µL total volume) and treated with diﬀerent concentrations of compound 2 and 37 (0, 0.025, 0.2, 1, 5, and 10 µg/mL). After 24 h the medium wa s removed and the cells we r e incubated in a fresh medium containing 5 mg/mL MTT for 4 h. The medium wa s then removed and the precipitated formazan wa s dissolved in 100 µL of DMSO followed by shaking for 10 min. Finally, the absorbance at 570 nm wa s measured on a microplate spectrophotometer. Each treatment wa s performed […]
(§2) Figure S1. Inhibitory activity of compounds 2 and 37 against HepG2 cell. […]

[7] = Cytotoxicity against HepG2 cell, MTT assay; assay type: cell-based; settings: human, HepG2 cells, at 5.0 μg/mL, 24 h
Method: as §1, §2

[8] = test system: E. coli; assay: Inhibitory potency against E. coli; assay type: cell-based; settings: at 16 µg/mL
[9] = Pharmacokinetic study in mice; assay type: in vivo; settings: male, ICR, mouse, plasma
From the text: Animal Care and Welfare Committee of Shanghai Institute of Materia Medica, Chinese Academy of Sciences approved all animal protocols. All animal programs are in compliance with the Guide for the Care and Use of Laboratory Animals issued by Shanghai Association on Laboratory Animal Care (SALAC). SPF male ICR mice weighing 25–27 g were divided into two groups, three mice in each group. The tested compounds were administrated via oral and intravenous injection, separately. […] The compound was co-dissolved by using 0.5% carboxymethyl cellulose for p.o. administration, and 10% DMSO/40%PEG400/40% water was used for i.v. administration, respectively. After oral dosing or i.v. administration, the blood was sampled at 5, 15, 30 min, and 1, 2, 4, 7, and 24 h. The sample plasma was harvested and stored at −80 °C for analysis. Based on noncompartmental analysis (Pharsight Corporation, Sunnyvale, CA, USA), the pharmacokinetic data were analyzed using WinNonlin software version 6.3.

[10] = test system: M. tuberculosis H37Rv; assay: In vivo efficacy, mouse model acutely infected with Mtb H37Rv, lung CFU; settings: BALB/C mice, oral 50 mg/kg once per day for 4 weeks except weekends
[11] = physchem; settings: pH 7.4, aqueous buffer, kinetic from dmso stock
[12] = test system: Mycobacterium tuberculosis; set-up: method as in PMID 24500695; settings: whole-cell activity; cited from earlier work

| SMILES | IC50 [1] | CLint scaled [2] | half-life [2] | MIC ([3]; H37Rv, Table S1) | MIC ([3]; Mtb H37Rv, MABA) | MIC ([3]; 168 h, Mtb H37Rv, MABA) | other results |
| --- | --- | --- | --- | --- | --- | --- | --- |
| CN(Cc1coc(-c2ccccc2)n1)c1nc(=O)c2cc(C(F)(F)F)cc([N+](=O)[O-])c2s1 [Compound 31, 2-{methyl[(2-phenyloxazol-4-yl)methyl]amino}-BTZ] | 220 nM | 51.7 mL/min/kg | 33.6 min | 13 ng/mL | 0.006 µM | – | – |
| CN(Cc1coc(-c2ccc(F)cc2)n1)c1nc(=O)c2cc(C(F)(F)F)cc([N+](=O)[O-])c2s1 [Compound 32] | 750 nM | – | – | 16 ng/mL | 0.006 µM | – | – |
| CN(Cc1coc(-c2cccc(F)c2)n1)c1nc(=O)c2cc(C(F)(F)F)cc([N+](=O)[O-])c2s1 [Compound 33] | 74 nM | – | – | 3 ng/mL | 0.021 µM | – | – |
| CN(Cc1csc(-c2ccccc2)n1)c1nc(=O)c2cc(C(F)(F)F)cc([N+](=O)[O-])c2s1 [Compound 34, 2-{methyl[(2-phenylthiazol-4-yl)methyl]amino}-BTZ] | 69 nM | 71.6 mL/min/kg | 24.3 min | 3 ng/mL | 0.015 µM | 0.015 µM | – |
| CN(Cc1csc(-c2cccc(F)c2)n1)c1nc(=O)c2cc(C(F)(F)F)cc([N+](=O)[O-])c2s1 [Compound 35] | 65 nM | – | – | 7 ng/mL | 0.032 µM | 0.032 µM | – |
| CN(Cc1csc(-c2ccc(F)cc2)n1)c1nc(=O)c2cc(C(F)(F)F)cc([N+](=O)[O-])c2s1 [Compound 36, 2-{[(2-(4-fluorophenyl)thiazol-4-yl)methyl](methyl)amino}-BTZ] | – | 25.5 mL/min/kg | 68.2 min | – | 0.034 µM | 0.034 µM | – |
| CN(Cc1nnc(-c2ccccc2)o1)c1nc(=O)c2cc(C(F)(F)F)cc([N+](=O)[O-])c2s1 [Compound 37, 2-{methyl[(5-phenyl-1,3,4-oxadiazol-2-yl)methyl]amino}-BTZ] | 20 to 750 nM | 25.5 mL/min/kg | 68.2 min | – | 0.006 µM | – | Lipid profile after [14C]-acetate labeling [4]: accumulated trehalose monomycolates (TMM) and trehalose dimycolates (TDM); solubility at 4 h [5]: 0.25 µg/mL (≈ 0.539 µM); Inhibition of HepG2 cell viability [6]: No inhibition of cell viability; viability at 24 h, 5 μg/mL [7]: 72 to 75%; Inhibitory potency against E. coli [8]: no obvious activity; AUC ([9]; IV 2 mg/kg): 528 ng·h/mL; Cmax ([9]; IV 2 mg/kg): 1860 ng/mL; MRT ([9]; IV 2 mg/kg): 24 min; half-life ([9]; IV 2 mg/kg): 18 min; clearance ([9]; IV 2 mg/kg, read-out: Clint (hepatic clearance) (converted)): 64 mL/min/kg; AUC ([9]; PO 10 mg/kg): 1870 ng·h/mL; Cmax ([9]; PO 10 mg/kg): 1890 ng/mL; MRT ([9]; PO 10 mg/kg): 54 min; half-life ([9]; PO 10 mg/kg): 36 min; bioavailability ([9]; oral, p.o. 10 mg/kg vs i.v. 2 mg/kg, read-out: F (oral bioavailability)): 70.6%; Reduction of bacteria load in the lungs compared to the control group [10]: 1.2 logs |
| CN(Cc1nnc(-c2ccccc2)s1)c1nc(=O)c2cc(C(F)(F)F)cc([N+](=O)[O-])c2s1 [Compound 40, 2-{methyl[(5-phenyl-1,3,4-thiadiazol-2-yl)methyl]amino}-BTZ] | – | 50.7 mL/min/kg | 34.3 min | – | 0.033 µM | – | – |
| O=c1nc(N2CCN(CC3CCCCC3)CC2)sc2c([N+](=O)[O-])cc(C(F)(F)F)cc12 [PBTZ169, reference compound] | – | – | – | 0.2 ng/mL | < 0.004 µM | – | Lipid profile after [14C]-acetate labeling [4]: accumulated trehalose monomycolates (TMM) and trehalose dimycolates (TDM); solubility at 4 h [11]: < 0.011 µg/mL; minimal inhibitory concentration (MIC) [12]: lower than 0.004 µM; Reduction of bacteria load in the lungs compared to the control group [10]: 3 logs |
